This note sets out measurements from patent US9487479B2, “Small molecule inhibitors of N-terminus activation of the androgen receptor” (The University of British Columbia, priority 2008, dated 2016).

The target in one experiment is T1, androgen receptor (AR) (Homo sapiens, UniProt P10275, T878A).
T1 construct: endogenous in cells; host or cells: LNCaP human prostate cancer cells
T1 sequence (P10275 1-920 T878A): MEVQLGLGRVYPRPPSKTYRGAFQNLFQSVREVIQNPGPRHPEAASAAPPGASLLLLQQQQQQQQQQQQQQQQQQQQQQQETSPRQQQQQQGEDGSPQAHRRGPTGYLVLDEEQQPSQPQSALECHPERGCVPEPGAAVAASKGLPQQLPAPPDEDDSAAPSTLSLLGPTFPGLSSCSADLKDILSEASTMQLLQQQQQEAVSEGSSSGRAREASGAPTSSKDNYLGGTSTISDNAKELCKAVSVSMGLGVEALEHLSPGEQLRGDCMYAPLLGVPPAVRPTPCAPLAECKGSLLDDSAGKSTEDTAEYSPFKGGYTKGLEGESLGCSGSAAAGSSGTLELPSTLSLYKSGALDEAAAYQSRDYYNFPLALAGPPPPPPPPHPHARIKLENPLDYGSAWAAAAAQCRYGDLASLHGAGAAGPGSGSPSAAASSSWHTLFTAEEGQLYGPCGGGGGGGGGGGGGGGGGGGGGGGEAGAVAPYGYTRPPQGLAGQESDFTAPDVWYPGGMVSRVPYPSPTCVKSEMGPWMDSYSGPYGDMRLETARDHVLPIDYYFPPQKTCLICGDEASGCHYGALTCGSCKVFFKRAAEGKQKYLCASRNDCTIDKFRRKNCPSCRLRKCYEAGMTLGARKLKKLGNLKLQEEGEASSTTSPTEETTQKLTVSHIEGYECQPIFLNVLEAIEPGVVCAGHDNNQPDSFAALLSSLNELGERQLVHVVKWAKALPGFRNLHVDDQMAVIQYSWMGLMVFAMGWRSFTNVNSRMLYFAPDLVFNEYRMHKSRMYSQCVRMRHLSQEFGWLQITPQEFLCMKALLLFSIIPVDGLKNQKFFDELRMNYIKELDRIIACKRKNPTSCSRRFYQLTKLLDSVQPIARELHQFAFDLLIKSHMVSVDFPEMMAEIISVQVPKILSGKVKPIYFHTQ
Kind of experiment: PSA (6.1 kb)-luciferase reporter assay in LNCaP cells. It is filed as cell-based. Particulars: R1881 1 nM, 24 hours; for inhibition of R1881 induction of PSA (6.1)-luciferase: 1 hour pretreatment. As for the experimental part:
White bars represent no steroid (ethanol control). Wherein glucocorticoid receptor (GR) and progesterone receptor (PR).
The cells were harvested 24 hours later and analyzed for luciferase activity. The data is normalized to protein that was measured using Bradford assay.
Sequence similarities of amino acids in the AR with related human steroid receptors (glucocorticoid receptor (GR) and progesterone receptor (PR)) are significant in some domains such as the DNA-binding-domain (DBD). Although the AR-NTD shares less than 15% homology with the PR and GR, these receptors do interact with some of the same proteins such as SRC-1 (steroid receptor coactivator-1). […] Cells were co-transfected with expression plasmids for full-length hGR and PRβ and the relative reporter (i.e., pGR-Luc or PRE-E1b-Luc reporters). Cells were then treated with ethanol vehicle, dexamethasone (GR), 4-pregnene-3,20 dione (progesterone) (PR) followed by measurement of luciferase activity.
Activation of the endogenous AR was measured in LNCaP human prostate cancer cells by measuring an androgen-responsive reporter containing androgen response elements (AREs). The PSA (6.1 kb)-luciferase reporter gene construct contains several well-characterized AREs and is induced by androgen.

For a further experiment, the system named is PSA mRNA. The experiment can be described thus: Androgen-induced PSA mRNA levels in LNCaP cells (qRT-PCR). Particulars: R1881 1 nM, 16 hours; for inhibition of androgen-induced levels of PSA mRNA: 10 μg/ml, 1 hour pretreatment. The class given is cell-based, human. The method, then: Levels of PSA mRNA were measured by quantitative real-time (qRT)-PCR and normalized to levels of GAPDH mRNA (housekeeping gene). White bar: no R1881. Black bars: R1881 (1 nM). MNE: mean normalized expression. DMSO (no R1881) was arbitrarily set at 1.0 for each individual experiment. Bars represent the mean±SE from 3 separate experiments using triplicate technical samples from each experiment.
PSA is an androgen-regulated gene containing several well-characterized androgen response elements (AREs) in the enhancer and promoter regions. Levels of PSA mRNA are induced by androgen by a mechanism dependent androgen receptor. To test if sintokamides would also block endogenous gene expression induced by androgen, levels of PSA mRNA were measured in response to the synthetic androgen R1881.
Background: Real-time PCR tracks product formation cycle by cycle.

The subject of another experiment is LNCaP cells. The experiment can be described thus: Androgen-dependent proliferation of LNCaP cells (BrdU incorporation). It is filed as cell-based, human. As to conditions: R1881 0.1 nM, 3 days. The method, then: BrdU incorporation was measured 3 days later to indicate changes in proliferation in response to androgen (see FIG. 3B).

With `CCC(=O)N[C@H](CC(C)C)C(=O)N1C(=O)C=C(OC)[C@@H]1CC(C)C` [non-chlorinated sintokamide, N—((R)-1-((S)-2-isobutyl-3-methoxy-5-oxo-2,5-dihydro-1H-pyrrol-1-yl)-4-methyl-1-oxopentan-2-yl)propionamide], the “inhibition of R1881 induction of PSA (6.1)-luciferase” value (“inhibition of R1881 induction of PSA” below) at androgen receptor (AR) (10 μM) is recorded as “some activity”.

As for Dysamide A [CB3.0], the “inhibition of R1881 induction of PSA” value at androgen receptor (AR) (5 μg/ml) was “some activity”; at androgen receptor (AR) (5 μg/ml, listed as Dysimide A), “inhibition”. In addition, in the experiment with PSA mRNA, the “inhibition of androgen-induced levels of PSA mRNA” value is “inhibit”.

For the compound `CCC(=O)N[C@H](C[C@H](C)C(Cl)(Cl)Cl)C(=O)N1C(=O)C=C(OC)[C@@H]1CC(C)C` [CB2.1, Sintokamide E], on androgen receptor (AR) (5 μg/ml), the “inhibition of R1881 induction of PSA” value is given as “inhibition”.

As for `CCC(=O)N[C@H](C[C@H](C)C(Cl)(Cl)Cl)C(=O)N1C(=O)C=C(OC)[C@@H]1C[C@H](C)C(Cl)(Cl)Cl` [CB4.0, Sintokamide B], on androgen receptor (AR) (5 μg/ml), the “inhibition of R1881 induction of PSA” value is given as “inhibition”. Further, the “inhibition of androgen-induced levels of PSA mRNA” value in the experiment on PSA mRNA is on record as “inhibit”.

Take `CCC(=O)N[C@H](C[C@H](C)C(Cl)Cl)C(=O)N1C(=O)C=C(OC)[C@@H]1C[C@H](C)C(Cl)Cl` [CB1.1, Sintokamide C]: the “inhibition of R1881 induction of PSA” value at androgen receptor (AR) (5 μg/ml) is recorded as “inhibition”.

`C[C@]1(O)CC[C@H]2[C@@H]3CCC4=CC(=O)CCC4=C3C=C[C@@]21C` [Sintokamide R1881, R1881, reference compound]: the “induction of PSA-luciferase activity” value on androgen receptor (AR) is “approximately 6 fold”. Also, in the experiment with PSA mRNA, the “induction of levels of PSA mRNA” value is recorded as “at least 3 fold”. Also, the “proliferation over control (BrdU incorporation)” value with LNCaP cells was “increased proliferation over control”.
